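Values below derive from 48-hour exposures of cells grown in 96-well plates, with endpoints linearly interpolated between the two concentrations bracketing the appropriate inhibition level. GI50: concentration for 50% inhibition of growth. The concentration for full growth arrest is given as TGI.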

Assay in all cases: NCI tumour cell line growth inhibition, 48 h
Assay [1] relates to A498 renal.
In assay [2] the test system is HCT-116 colon.
Assay [3] relates to HT29 colon.
The test system of assay [4] is NCI-H226 lung.
Assay [5] deals with NCI-H460 lung.
Assay [6] has as its system OVCAR-8 ovarian.
The subject of assay [7] is SF-268 CNS.
Assay [8] concerns SF-295 CNS.
The test system of assay [9] is SF-539 CNS.
In assay [10] the test system is UACC-257 melanoma.

With `COc1cc(SC)ccc1C(=O)N1CCCC(C)C1` (stereo not given), the GI50 in assay [1] is 34.4 µM; in assay [2], more than 100 µM; in [3], more than 100 µM; in assay [4], 80.4 µM; in assay [5] it was more than 100 µM; in assay [6], more than 100 µM. In addition, the GI50 was more than 100 µM in [7], more than 100 µM in assay [8], more than 100 µM in [9] and 78.9 µM in assay [10]. In addition, the TGI in assay [1], in [2], in assay [3], in assay [4], in assay [5] and in [6] was more than 100 µM throughout. Besides, the TGI in assay [7], in assay [8], in assay [9] and in assay [10] was more than 100 µM throughout.

Regarding `COc1cc(C=NCC(=O)CSC(c2ccccc2)c2ccccc2)cc(OC)c1OC`, the GI50 in assay [1] was 5.98 µM; in assay [2], 14.1 µM; in [3] it was 8 µM; in assay [4], 17.9 µM; in [5], 13 µM; in assay [6], 19.2 µM. Further, the GI50 is 34.6 µM in [7], 11.5 µM in [8], 33.1 µM in assay [9] and 13.9 µM in assay [10]. The TGI in assay [1] is 38 µM; in assay [2] it was more than 100 µM; in assay [3], 83.6 µM; in assay [4], more than 100 µM; in assay [5], more than 100 µM; in assay [6], more than 100 µM. Besides, the TGI in assay [7] was more than 100 µM; in [8], 58.2 µM; in [9], more than 100 µM; in assay [10] it was 60.5 µM.

On to `CCn1cc(C2NC(=O)c3cc(F)ccc3N2)c2cccc(Cl)c21` (stereo not given), for which the GI50 in assay [1] was 0.0879 µM; in assay [2], 0.177 µM; in assay [3], 0.276 µM; in [4], 0.664 µM; in assay [5], 0.32 µM; in [6], 0.408 µM. In addition, the GI50 was 1.92 µM in assay [7], 0.1 µM in assay [8], 0.177 µM in assay [9] and more than 100 µM in assay [10]. Moreover, the TGI in assay [1] was 0.402 µM; in assay [2] it was more than 100 µM; in assay [3], more than 100 µM; in assay [4], 9.63 µM; in assay [5], more than 100 µM; in assay [6], more than 100 µM. For the same molecule, the TGI is more than 100 µM in assay [7], more than 58.3 µM in assay [8], 0.683 µM in assay [9] and more than 100 µM in assay [10].

For the molecule `N#CC(/C(=N\NC(N)=S)C(=O)NC1C2CC3CC(C2)CC1C3)c1ccc(Cl)cc1` (stereo not given), the TGI in assay [1], in [2], in assay [3], in [4], in assay [5] and in assay [6] was more than 100 µM throughout. The TGI in assay [7], in assay [8], in assay [9] and in assay [10] was more than 100 µM each time.

As to `COCCOC(=O)CCn1cc(F)c(=O)[nH]c1=O`, the GI50 in assay [1] was 0.989 µg/mL; in assay [2] it was 4.54 µg/mL; in [3], 4.55 µg/mL; in assay [4] it was 119 µg/mL; in [5], 0.821 µg/mL; in assay [6], 32 µg/mL. Besides, the GI50 was 102 µg/mL in [7], 33.2 µg/mL in assay [8], 7.42 µg/mL in assay [9] and 26.5 µg/mL in assay [10]. Moreover, the TGI in assay [1], in assay [2], in [3], in assay [4], in assay [5] and in assay [6] was more than 150 µg/mL throughout. In addition, the TGI in assay [7], in assay [8], in assay [9] and in [10] was more than 150 µg/mL in each case.

`Cc1cc(Br)cc(C)c1NC(=O)C(=O)C(C(=O)c1ccc(Cl)c(Cl)c1)C1OC(=O)c2ccccc21` (stereo not given): the TGI in assay [1], in [2], in assay [3], in [4], in [5] and in assay [6] was more than 100 µM each time. In addition, the TGI in assay [7], in [8], in assay [9] and in assay [10] was more than 100 µM in each case.

For `COc1cc(Nc2ncc(-c3ccccc3)o2)cc(OC)c1OC`, the GI50 in assay [1] was 0.607 µM; in [2], 1.45 µM; in [3], 0.951 µM; in assay [4], 2.97 µM; in [5], 0.161 µM; in [6], 8.3 µM. In addition, the GI50 in assay [7] is 4.73 µM; in assay [8], 2.7 µM; in assay [9] it was 1.53 µM; in assay [10], more than 15.9 µM. In addition, the TGI in assay [1] was more than 7.47 µM; in assay [2], more than 25 µM; in assay [3], more than 25 µM; in assay [4], more than 25 µM; in assay [5], more than 25 µM; in [6], more than 25 µM. Besides, the TGI in assay [7], in assay [8], in assay [9] and in assay [10] was more than 25 µM in each case.

As for `CCc1ccc(/C=C2/SC(=S)NC2=O)cc1`, the GI50 in assay [1] is 6.15 µM; in [2], 21 µM; in assay [3], 27.9 µM; in [4], 20.3 µM; in [5] it was 20.7 µM; in [6], 25.9 µM. Further, the GI50 in [7] is 24.5 µM; in assay [8], 18.2 µM; in [9] it was 21 µM; in assay [10], 17.7 µM. Further, the TGI in assay [1] was 36.4 µM; in assay [2], 59.5 µM; in assay [3], more than 80 µM; in [4], 71.3 µM; in [5], 54.8 µM; in [6] it was more than 88.8 µM. Moreover, the TGI is more than 100 µM in assay [7], 56.8 µM in assay [8], 56.6 µM in assay [9] and 61.3 µM in [10].

(Values after PubChem BioAssay (NCI).)
